Experimental data published in US20230118577A1, “NEUROACTIVE STEROIDS AND PHARMACEUTICAL COMPOSITION CONTAINING THE SAME” (Brii Biosciences, Inc., priority 2020, published 2023).

Key:
GABAA α1β2γ2 = target: T1, GABAA α1β2γ2 (Homo sapiens, UniProt P14867+P47870); test: Automated patch clamp electrophysiology (SyncroPatch), PAM mode, GABAA α1β2γ2 cell line; assay type: cell-based; conditions: PAM mode; for EC50: HEK293 cells expressing human GABAA α1β2γ2, GABA EC20 14 μM, read-out: GABAA α1β2γ2 PAM EC50; for Emax: maximum fold increase in current relative to Allopregnanolone, GABA EC20 14 μM, read-out: GABAA α1β2γ2 PAM % Emax (to Allo)
T1 construct: expressed in transfected cells; host or cells: HEK293 expressing the Tetracycline repressor protein
T1 sequence (P14867 28-456): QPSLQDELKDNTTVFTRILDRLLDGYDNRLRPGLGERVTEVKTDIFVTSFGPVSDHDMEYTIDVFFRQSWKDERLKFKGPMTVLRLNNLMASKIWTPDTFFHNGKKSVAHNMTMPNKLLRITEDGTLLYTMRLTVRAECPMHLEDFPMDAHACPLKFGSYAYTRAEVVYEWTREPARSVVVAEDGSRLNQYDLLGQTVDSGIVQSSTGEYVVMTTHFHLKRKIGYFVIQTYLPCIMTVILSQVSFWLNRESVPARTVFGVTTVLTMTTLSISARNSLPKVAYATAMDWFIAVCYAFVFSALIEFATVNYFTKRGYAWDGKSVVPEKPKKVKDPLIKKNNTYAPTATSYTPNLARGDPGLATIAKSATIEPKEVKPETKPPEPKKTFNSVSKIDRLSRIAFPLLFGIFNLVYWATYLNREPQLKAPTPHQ
T1 sequence (P47870 25-512 limits assumed): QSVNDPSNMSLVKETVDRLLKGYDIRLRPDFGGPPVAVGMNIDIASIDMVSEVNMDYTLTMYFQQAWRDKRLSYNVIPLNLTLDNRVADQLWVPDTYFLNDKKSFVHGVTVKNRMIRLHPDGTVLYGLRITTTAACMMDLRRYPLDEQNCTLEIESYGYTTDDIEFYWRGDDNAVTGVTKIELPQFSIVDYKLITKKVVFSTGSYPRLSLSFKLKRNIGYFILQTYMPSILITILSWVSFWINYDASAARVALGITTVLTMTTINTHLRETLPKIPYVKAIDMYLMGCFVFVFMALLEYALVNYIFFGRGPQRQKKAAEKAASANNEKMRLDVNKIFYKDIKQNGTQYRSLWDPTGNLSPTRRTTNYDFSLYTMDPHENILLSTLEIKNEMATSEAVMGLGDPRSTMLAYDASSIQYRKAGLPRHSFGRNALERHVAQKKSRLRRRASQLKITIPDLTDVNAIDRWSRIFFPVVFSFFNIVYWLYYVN
T1 sequence (P18507 40-475 partner): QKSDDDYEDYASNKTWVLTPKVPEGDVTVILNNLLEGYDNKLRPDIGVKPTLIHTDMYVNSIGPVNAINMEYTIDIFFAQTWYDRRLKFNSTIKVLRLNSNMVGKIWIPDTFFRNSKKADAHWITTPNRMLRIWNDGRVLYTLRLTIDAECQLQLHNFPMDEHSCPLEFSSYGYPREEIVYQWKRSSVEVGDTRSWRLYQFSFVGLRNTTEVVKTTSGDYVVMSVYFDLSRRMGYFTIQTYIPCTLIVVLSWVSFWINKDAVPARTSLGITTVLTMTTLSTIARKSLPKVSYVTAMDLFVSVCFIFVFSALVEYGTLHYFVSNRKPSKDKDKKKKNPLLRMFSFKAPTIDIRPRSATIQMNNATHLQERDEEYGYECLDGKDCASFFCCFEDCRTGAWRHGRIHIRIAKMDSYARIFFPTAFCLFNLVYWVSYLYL
Source text: (§1) Cellular electrophysiology was used to measure the pharmacology properties of the GABA receptor modulators. The GABAA channels are expressed in stable cell lines described herein. The parental cell line used to express the human GABAA channels is the human embryonic kidney (HEK293) cell line expressing the Tetracycline repressor protein to support inducible expression of the target proteins.
(§2) For the GABAA α4β3δ cell line, the α4 and β3 subunits are under control of tetracycline inducible expression system, while the δ subunit is constitutively expressed. For the GABAA α1β2γ2 cell line, the α1 and β2 subunits are under control of tetracycline inducible expression system, whist the γ2 subunit is constitutively expressed.
(§3) Assessment of the compounds against GABAA α1β2γ2 and GABAA α4β3δ was performed using the SyncroPatch automated platform in positive allosteric modulator (PAM) mode. Six concentrations of 20 nM, 62 nM, 185 nM, 555 nM, 1667 nM and 5000 nM were tested across the plate, with a single concentration of compound per well. A minimum of 3 cells were obtained per each concentration of a compound.
(§4) Automated patch clamp-recordings were performed using the SyncroPatch 384PE. The voltage protocol generation and data collection were performed with PatchController384 V1.6.6 and Data Controller V1.6.0. A steady state voltage pulse at −80 mV was applied during the assay.
(§5) The stacked addition protocol was used, in which γ-aminobutyric acid (GABA) was rapidly applied and then washed off from the cell. To test for positive allosteric modulator activity (PAM), first the agonist GABA EC20 (EC20: 10 μM for GABAA α4β3δ channel and 14 μM GABA for the GABAA α1β2γ2 channel) was applied twice (with wash steps in-between) as a control and to show activation reproducibility, followed by a 1-2 minutes pre-incubation of the tested compound and then re-application of GABA EC20 in the presence of a testing compound. Finally, following a further wash step, maximum GABA (10 mM) was applied.
(§6) An Allopregnanolone concentration response was tested as the control PAM on the compound plates. The fold increase was generated using the following equation, (Icomp/Icontrol)−1, where Icomp is the current amplitude in the presence of the compound and Icontrol is the current amplitude in the presence of GABA EC20 alone. This builds an EC50 concentration-response curve, where 0 represents no PAM activity and >0 represents PAM activity.
(§7) A maximum % Emax for each compound is generated using the following equation, (IMaxComp/IAveMaxAllo)*100, where IMaxcomp is the individual maximum fold increase in current for each compound and IAveMaxAllo is the average maximum fold increase generated in the presence of Allopregnanolone. The resultant % Emax values are then averaged. The compound and Allopregnanolone values were obtained from separate cells which were tested in the same compound run. Two GABAA subtypes were tested against each of the compounds as well as the positive control, Allopregnanolone.

GABAA α4β3δ = target: T2, GABAA α4β3δ (Homo sapiens, UniProt P28472+P48169); test: Automated patch clamp electrophysiology (SyncroPatch), PAM mode, GABAA α4β3δ cell line; assay type: cell-based; conditions: PAM mode, GABA EC20 10 μM; for EC50: HEK293 cells expressing human GABAA α4β3δ, read-out: GABAA α4β3δ PAM EC50; for Emax: maximum fold increase in current relative to Allopregnanolone, read-out: GABAA α4β3δ PAM % Emax (to Allo)
T2 construct: expressed in transfected cells; host or cells: HEK293 expressing the Tetracycline repressor protein
T2 sequence (P48169 36-554): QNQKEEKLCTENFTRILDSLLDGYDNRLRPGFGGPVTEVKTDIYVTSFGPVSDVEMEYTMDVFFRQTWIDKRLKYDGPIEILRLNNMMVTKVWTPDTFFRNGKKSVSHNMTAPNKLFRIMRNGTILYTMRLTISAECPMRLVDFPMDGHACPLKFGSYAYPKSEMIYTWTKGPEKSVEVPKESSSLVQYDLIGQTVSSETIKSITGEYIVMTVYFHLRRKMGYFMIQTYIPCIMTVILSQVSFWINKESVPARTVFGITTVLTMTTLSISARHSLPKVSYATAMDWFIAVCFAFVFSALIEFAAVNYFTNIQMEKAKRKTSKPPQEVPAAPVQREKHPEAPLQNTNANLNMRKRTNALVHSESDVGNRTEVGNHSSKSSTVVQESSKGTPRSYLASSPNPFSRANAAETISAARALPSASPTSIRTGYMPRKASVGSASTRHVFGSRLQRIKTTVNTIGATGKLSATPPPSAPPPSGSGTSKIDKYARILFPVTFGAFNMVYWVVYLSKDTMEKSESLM
T2 sequence (P28472 26-473): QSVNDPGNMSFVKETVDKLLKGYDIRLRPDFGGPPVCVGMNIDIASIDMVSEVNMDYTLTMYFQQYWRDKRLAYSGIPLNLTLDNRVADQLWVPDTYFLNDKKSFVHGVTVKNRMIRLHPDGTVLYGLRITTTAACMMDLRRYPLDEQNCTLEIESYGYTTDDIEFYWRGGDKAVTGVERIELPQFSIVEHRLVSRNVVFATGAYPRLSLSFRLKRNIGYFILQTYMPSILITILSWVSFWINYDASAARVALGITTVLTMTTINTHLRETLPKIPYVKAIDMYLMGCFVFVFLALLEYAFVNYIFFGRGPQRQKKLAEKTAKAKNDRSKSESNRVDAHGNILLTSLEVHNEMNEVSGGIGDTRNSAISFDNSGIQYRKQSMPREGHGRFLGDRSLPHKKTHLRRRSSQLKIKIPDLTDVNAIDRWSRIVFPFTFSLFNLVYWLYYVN
T2 sequence (O14764 17-452 partner limits assumed): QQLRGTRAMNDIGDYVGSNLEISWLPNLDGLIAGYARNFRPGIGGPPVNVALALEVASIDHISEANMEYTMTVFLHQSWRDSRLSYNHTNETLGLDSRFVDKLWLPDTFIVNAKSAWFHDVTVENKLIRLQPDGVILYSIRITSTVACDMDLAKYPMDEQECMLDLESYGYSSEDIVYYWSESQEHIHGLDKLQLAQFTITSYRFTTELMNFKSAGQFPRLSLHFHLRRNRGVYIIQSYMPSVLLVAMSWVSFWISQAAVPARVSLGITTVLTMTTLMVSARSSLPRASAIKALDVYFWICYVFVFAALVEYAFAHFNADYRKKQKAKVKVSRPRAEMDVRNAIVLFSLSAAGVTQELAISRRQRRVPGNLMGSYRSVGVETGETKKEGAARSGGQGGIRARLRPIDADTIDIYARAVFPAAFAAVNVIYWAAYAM
Source text: as §1, §2, §3, §4, §5, §6, §7

`C#CC1([C@H]2CC[C@H]3[C@@H]4CC[C@@H]5C[C@](C)(O)CC[C@@H]5[C@H]4CC[C@]23C)COC1` [Example 22, (3R,5R,8R,9R,10S,13S,14S,17S)-17-(3-ethynyloxetan-3-yl)-3,13-dimethyl-2,4,5,6,7,8,9,10,11,12,14,15,16,17-tetradecahydro-1H-cyclopenta[a]phenanthren-3-ol] showed an EC50 (GABAA α1β2γ2) of under 500 nM, an Emax (GABAA α1β2γ2) of over 90% and an EC50 (GABAA α4β3δ) of over 1500 nM. For the same compound, the Emax (GABAA α4β3δ) was 50 to 90%.

In the case of `CC1([C@H]2CC[C@H]3[C@@H]4CC[C@@H]5C[C@](C)(O)CC[C@@H]5[C@H]4CC[C@]23C)COC1` [Example 2, (3R,5R,8R,9R,10S,13S,14S,17S)-3,13-dimethyl-17-(3-methyloxetan-3-yl)-2,4,5,6,7,8,9,10,11,12,14,15,16,17-tetradecahydro-1H-cyclopenta[a]phenanthren-3-ol], the EC50 (GABAA α1β2γ2) is reported as 1000 to 1500 nM, the Emax (GABAA α1β2γ2) is reported as over 90% and the EC50 (GABAA α4β3δ) is reported as under 500 nM. For the same compound, the Emax (GABAA α4β3δ) was over 90%.

`CC1([C@H]2CC[C@H]3[C@@H]4CC[C@@H]5C[C@H](O)CC[C@]5(C)[C@H]4CC[C@]23C)COC1` [Example 6, (3R,5R,8R,9S,10S,13S,14S,17S)-10,13-dimethyl-17-(3-methyloxetan-3-yl)-2,3,4,5,6,7,8,9,11,12,14,15,16,17-tetradecahydro-1H-cyclopenta[a]phenanthren-3-ol] gave an EC50 (GABAA α1β2γ2) of under 500 nM, an Emax (GABAA α1β2γ2) of over 90% and an EC50 (GABAA α4β3δ) of 1000 to 1500 nM. It also gave an Emax (GABAA α4β3δ) of over 90%.
